{
  "source": "ChEMBL document CHEMBL1201862",
  "about": "“PubChem BioAssay data set” (2004)",
  "key": {"[1]": {"assay": "HEK293T cytotoxicity, dose response, cytotoxicity control for miR-122 modulator project, cell-based, inhibitor set, cherry-pick, set 2 (AID 720697)", "type": "functional"}, "cells [2]": {"assay": "cells"}, "Major prion protein": {"molecular_target": "Major prion protein (Homo sapiens, UniProt P04156)", "type": "functional, cell-based"}, "cells [3]": {"assay": "cells", "type": "functional, cell-based", "conditions": "HEK-CNG"}, "[4]": {"assay": "inhibitors of intracellular T. cruzi replication, confirmation, NIH3T3 host cells, beta-gal luminescence (AID 2044);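 note: luminescent beta-galactosidase reporter signal from transgenic T. cruzi replicating inside host cells; inhibitors lower the luminescence signal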", "type": "functional, cell-based"}, "Galanin receptor type 3": {"molecular_target": "Galanin receptor type 3 (Homo sapiens, UniProt O60755)", "assay": "Fluorescence-based cell-based primary high throughput dose response assay to identify antagonists of the Galanin Receptor 3 (GalR3).", "type": "functional"}, "[5]": {"assay": "cytotoxicity toward NIH3T3 fibroblasts, dose response, counter-screen, cell-based, ATP luminescence, mouse fibroblasts (AID 2010);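 note: cells exposed to compound for about 90 hours before reading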", "type": "functional"}, "[6]": {"molecular_target": "1-phosphatidylinositol 4,5-bisphosphate phosphodiesterase gamma-1 (Homo sapiens, UniProt P19174)", "assay": "Counterscreen for inhibitors of phospholipase C isozymes (PLC-B3): Fluorescence-based biochemical high throughput dose response assay to identify inhibitors of phospholipase C isozymes (PLC-gamma1)."}, "[7]": {"molecular_target": "1-phosphatidylinositol 4,5-bisphosphate phosphodiesterase beta-3 (Homo sapiens, UniProt Q01970)", "assay": "Fluorescence-based biochemical high throughput dose response assay to identify inhibitors of phospholipase C isozymes (PLC-B3)."}, "Albumin": {"molecular_target": "Albumin (Bos taurus, UniProt P02769)", "assay": "Counterscreen for inhibitors of T-cell receptor (TCR)-CD3 interaction: Fluorescence-based biochemical high throughput dose response assay to identify inhibitors of T-cell receptor (TCR)-CD3 interaction using a TAMRA-labeled BSA probe.", "type": "functional"}, "[8]": {"molecular_target": "T1, Carboxy-terminal domain RNA polymerase II polypeptide A small phosphatase 1 (Homo sapiens, UniProt Q9GZU7)", "T1 sequence (Q9GZU7 whole entry)": "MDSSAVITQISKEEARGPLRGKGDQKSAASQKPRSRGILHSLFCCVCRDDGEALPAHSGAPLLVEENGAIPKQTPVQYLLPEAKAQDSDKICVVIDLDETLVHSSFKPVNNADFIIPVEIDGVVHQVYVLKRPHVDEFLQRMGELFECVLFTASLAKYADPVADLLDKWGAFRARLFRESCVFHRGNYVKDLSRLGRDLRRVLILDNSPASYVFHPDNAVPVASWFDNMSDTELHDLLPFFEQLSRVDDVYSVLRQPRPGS", "assay": "inhibitors of CTDSP1, concentration-response testing, biochemical assay, absorbance-based, actives from ultra-high-throughput screening (AID 540297)", "type": "functional"}, "[9]": {"molecular_target": "T2, Low molecular weight phosphotyrosine protein phosphatase (Homo sapiens, UniProt P24666)", "T2 sequence (P24666 whole entry)": "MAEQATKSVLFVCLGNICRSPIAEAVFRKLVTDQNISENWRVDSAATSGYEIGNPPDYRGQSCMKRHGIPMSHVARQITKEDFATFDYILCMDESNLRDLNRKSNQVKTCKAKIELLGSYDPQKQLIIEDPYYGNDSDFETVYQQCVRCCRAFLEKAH", "type": "functional", "conditions": "read-out: IC50_Mean"}, "[10]": {"molecular_target": "T2, Low molecular weight phosphotyrosine protein phosphatase", "type": "functional", "conditions": "read-out: IC50_Mean", "remark": "listed apart in the source"}, "[11]": {"assay": "non-specific cell cytotoxicity, dose response, cytotoxicity control for PAX8 inhibitor project, plate reader, dry powder samples (AID 743021)", "type": "functional, cell-based"}, "Caspase-6": {"molecular_target": "Caspase-6 (Homo sapiens, UniProt P55212)", "assay": "human caspase-6 inhibitors, dose response, biochemical, VEID-R110 fluorescence, cherry-pick (AID 720632)"}, "[12]": {"molecular_target": "T3, Probable nicotinate-nucleotide adenylyltransferase (Staphylococcus aureus (strain N315), UniProt P65502)", "type": "functional, Staphylococcus aureus subsp. aureus N315"}, "[13]": {"molecular_target": "T3, Probable nicotinate-nucleotide adenylyltransferase", "type": "functional, Staphylococcus aureus subsp. aureus N315", "conditions": "read-out: IC50_Mean"}, "[14]": {"assay": "cytotoxicity in HMLE control line with eGFP shRNA, dose response, counter-screen for HMLE_sh_ECad selective toxicity project, cell-based, HMLE_sh_eGFP, luminescence (AID 463074);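 note: HMLE human mammary epithelial cells expressing control shRNA against eGFP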", "type": "functional, Homo sapiens"}, "[15]": {"assay": "Luminescence Cell-Based Dose Retest to Confirm Inhibitors of Cancer Stem Cells. [Related pubchem assays (depositor defined):AID2717, AID2721]", "type": "functional", "conditions": "Homo sapiens"}, "HeLa": {"tested_on": "HeLa", "assay": "HeLa cell cytotoxicity, dose response, cytotoxicity control, ATP luminescence, cherry-pick samples (AID 687004)", "type": "functional, cell-based", "conditions": "Homo sapiens"}},
  "note": "Activity calls are given as the source filed them.",
  "data": [
    {"compound": "CN(C(=O)C12CC3CC(CC(C3)C1)C2)C1CCS(=O)(=O)C1", "note": "(stereo unspecified)", "values": [
      {"measurement": "AC50", "setting": "[1]", "result": "1.42 µM (active)"}
    ]},
    {"compound": "CC(C)c1nc(SCC(=O)Nc2nccs2)c2ccccc2n1", "values": [
      {"measurement": "IC50", "setting": "cells [2]", "result": "> 138 µM (inactive)"},
      {"measurement": "IC50", "setting": "Major prion protein", "result": "2.4 µM (active)"}
    ]},
    {"compound": "O=C(CN1CCC(c2nc3ccccc3s2)CC1)NCc1cccs1", "values": [
      {"measurement": "EC50", "setting": "cells [3]", "result": "> 29.9 µM (inactive)"},
      {"measurement": "EC50", "setting": "[4]", "result": "0.646 µM (active)"},
      {"measurement": "IC50", "setting": "Galanin receptor type 3", "result": "1.39 µM (active)"},
      {"measurement": "EC50", "setting": "[5]", "result": "> 30 µM (not active)"}
    ]},
    {"compound": "CCOc1cc(C2Nc3ccccc3C(=O)N2c2ccccc2)c(Br)cc1OCC(=O)O", "note": "(stereo unspecified)", "values": [
      {"measurement": "IC50", "setting": "cells [2]", "result": "> 138 µM (inactive)"},
      {"measurement": "IC50", "setting": "Major prion protein", "result": "10.1 µM (inactive)"}
    ]},
    {"compound": "Cc1c(/N=C(\\S)N/N=C/C=C/c2ccc([N+](=O)[O-])cc2)c(=O)n(-c2ccccc2)n1C", "values": [
      {"measurement": "IC50", "setting": "[6]", "result": "> 123 µM (inactive)"},
      {"measurement": "IC50", "setting": "[7]", "result": "> 123 µM (inactive)"}
    ]},
    {"compound": "C=CCn1c(O)c(N=NC(=O)CNC(=O)/C=C/c2ccco2)c2ccccc21", "values": [
      {"measurement": "IC50", "setting": "Albumin", "result": "> 94.1 µM (inactive)"}
    ]},
    {"compound": "O=C(Nc1nc2ccsc2c(=O)s1)c1ccc(F)cc1", "values": [
      {"measurement": "IC50", "setting": "[8]", "result": "5.11 µM (active)"},
      {"measurement": "IC50", "setting": "[9]", "result": "11 µM (active)"},
      {"measurement": "IC50", "setting": "[10]", "result": "32 µM (inactive)"}
    ]},
    {"compound": "Cc1ccc(NC(=S)N(CCCN2CCOCC2)Cc2ccccn2)cc1", "values": [
      {"measurement": "AC50", "setting": "[11]", "result": "50.9 µM (active)"}
    ]},
    {"compound": "CCc1nc(N)nc(N)c1-c1ccc(Cl)c(N=[N+]=[N-])c1", "values": [
      {"measurement": "IC50", "setting": "[9]", "result": "13.4 µM (active)"},
      {"measurement": "IC50", "setting": "[10]", "result": "24.1 µM (inactive)"}
    ]},
    {"compound": "O=C(Nc1cccc(C(F)(F)F)c1)c1cccc(NS(=O)(=O)c2ccc(O)c(C(=O)O)c2)c1", "values": [
      {"measurement": "AC50", "setting": "Caspase-6", "result": "40.3 µM (active)"}
    ]},
    {"compound": "O=C1NC[C@H](Cc2ccccc2)N(C[C@H]2CCCN2C[C@H](Cc2ccccc2)N2C[C@H](Cc3ccc(O)cc3)N(CC3CCCCCC3)C(=O)C2=O)C1=O", "values": [
      {"measurement": "IC50", "setting": "[12]", "result": "11.6 µM (active)"},
      {"measurement": "IC50", "setting": "[13]", "result": "37.5 µM (active)"}
    ]},
    {"compound": "COc1cc(/C=c2\\sc3n(c2=O)C(c2ccccc2)C(c2ccccc2)=NN=3)ccc1O", "note": "(stereo unspecified)", "values": [
      {"measurement": "IC50", "setting": "[12]", "result": "19.7 µM (active)"},
      {"measurement": "AC50", "setting": "[14]", "result": "38.5 µM (active)"},
      {"measurement": "AC50", "setting": "[15]", "result": "4.58 µM (active)"},
      {"measurement": "IC50", "setting": "[13]", "result": "57.3 µM (active)"}
    ]},
    {"compound": "C[C@@H]1CCCCO[C@H](CN(C)Cc2ccc3c(c2)OCO3)[C@H](C)CN([C@H](C)CO)C(=O)c2cc(NC(=O)Nc3cccc4ccccc34)ccc2O1", "values": [
      {"measurement": "AC50", "setting": "HeLa", "result": "20.1 µM (active)"}
    ]}
  ]
}
